{"source": "ChEMBL document CHEMBL1123130", "about": "(J Med Chem, 1985)", "note": "pKi: −log10 of the molar value."}
{"target": "T1, Progesterone receptor (Oryctolagus cuniculus, UniProt P06186)", "T1 sequence (P06186 whole entry)": "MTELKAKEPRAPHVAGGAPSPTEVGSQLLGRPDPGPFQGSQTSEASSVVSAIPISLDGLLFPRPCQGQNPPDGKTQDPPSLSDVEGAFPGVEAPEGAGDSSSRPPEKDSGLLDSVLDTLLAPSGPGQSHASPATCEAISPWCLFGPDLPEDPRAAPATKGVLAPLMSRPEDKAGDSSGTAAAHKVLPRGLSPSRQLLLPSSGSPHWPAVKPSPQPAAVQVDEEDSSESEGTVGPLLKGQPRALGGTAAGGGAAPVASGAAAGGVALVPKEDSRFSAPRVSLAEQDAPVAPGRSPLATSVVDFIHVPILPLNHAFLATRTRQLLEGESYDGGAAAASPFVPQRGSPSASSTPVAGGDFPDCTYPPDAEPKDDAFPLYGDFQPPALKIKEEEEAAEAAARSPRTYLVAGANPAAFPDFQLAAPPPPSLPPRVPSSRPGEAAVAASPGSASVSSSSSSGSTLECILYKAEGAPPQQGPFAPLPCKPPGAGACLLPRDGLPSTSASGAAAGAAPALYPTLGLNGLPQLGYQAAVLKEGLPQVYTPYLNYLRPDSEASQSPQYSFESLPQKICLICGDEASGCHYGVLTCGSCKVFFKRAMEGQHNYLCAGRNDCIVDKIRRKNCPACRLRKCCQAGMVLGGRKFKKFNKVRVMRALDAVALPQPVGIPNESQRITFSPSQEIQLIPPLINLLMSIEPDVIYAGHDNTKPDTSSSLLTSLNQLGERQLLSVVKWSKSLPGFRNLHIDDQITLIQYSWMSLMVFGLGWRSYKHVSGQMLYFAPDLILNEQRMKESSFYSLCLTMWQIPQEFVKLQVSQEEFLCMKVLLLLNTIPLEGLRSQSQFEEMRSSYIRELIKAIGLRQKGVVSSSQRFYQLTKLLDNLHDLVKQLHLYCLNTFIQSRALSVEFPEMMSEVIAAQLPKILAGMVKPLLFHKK", "assay": "Inhibition of [3H]R5020 binding to rabbit uterine progesterone receptor"}
{"smiles": "CC12CCC3C4CCC(=O)C=C4CCC3C1CCC2(O)/C=C/I", "note": "(centres undefined)", "pKi": 8.74}
{"smiles": "CC12CCC3C4CCC(=O)C=C4CCC3C1CCC2(O)/C=C\\I", "note": "(centres undefined)", "pKi": 8.37}
{"smiles": "CC12CCC3C4CCC(=O)C=C4CCC3C1C[C@@H](I)C2O", "note": "(some centres undefined)", "pKi": 7.40}
{"smiles": "C=C(I)C1(O)CCC2C3CCC4=CC(=O)CCC4C3CCC21C", "note": "(centres undefined)", "pKi": 7.10}
